Experiments:
Escherichia coli [1] = assay: Antibacterial activity against Escherichia coli infected in microbiologically evaluable patient with UTI assessed as cure rate at 250 mg, iv qd for 10 days measured at test-of-cure visit; assay type: functional
Escherichia coli [2] = assay: Antibacterial activity against levofloxacin-resistant Escherichia coli infected in microbiologically evaluable patient with UTI assessed as cure rate at 250 mg, iv qd for 10 days measured at test-of-cure visit; assay type: functional
Escherichia coli [3] = assay: Antibacterial activity against levofloxacin-resistant Escherichia coli infected in clinically evaluable patient with UTI assessed as cure rate at 250 mg, iv qd for 10 days measured at test-of-cure visit; assay type: functional
Klebsiella pneumoniae [4] = assay: Antibacterial activity against Klebsiella pneumoniae infected in microbiologically evaluable patient with UTI assessed as cure rate at 250 mg, iv qd for 10 days measured at test-of-cure visit; assay type: functional
Proteus mirabilis [5] = assay: Antibacterial activity against Proteus mirabilis infected in microbiologically evaluable patient with UTI assessed as cure rate at 250 mg, iv qd for 10 days measured at test-of-cure visit; assay type: functional
Escherichia coli [6] = assay: Antibacterial activity against Escherichia coli isolated from patient with urinary tract infection receiving drug at 250 mg, iv qd for 10 days measured after post drug therapy; assay type: functional; conditions: Urine, 240 h
Klebsiella pneumoniae [7] = assay: Antibacterial activity against Klebsiella pneumoniae isolated from patient with urinary tract infection receiving drug at 250 mg, iv qd for 10 days measured after post drug therapy; assay type: functional; conditions: Urine, 240 h
Proteus mirabilis [8] = assay: Antibacterial activity against Proteus mirabilis isolated from patient with urinary tract infection receiving drug at 250 mg, iv qd for 10 days measured after post drug therapy; assay type: functional; conditions: Urine, 240 h
Pseudomonas aeruginosa [9] = assay: Antibacterial activity against Pseudomonas aeruginosa isolated from patient with urinary tract infection receiving drug at 250 mg, iv qd for 10 days measured after post drug therapy; assay type: functional; conditions: Urine, 240 h
Enterococcus faecalis = assay: Antibacterial activity against levofloxacin-resistant Enterococcus faecalis
Escherichia coli [10] = assay: Antibacterial activity against levofloxacin-resistant Escherichia coli; assay type: functional
Proteus mirabilis [11] = assay: Antibacterial activity against levofloxacin-resistant Proteus mirabilis; assay type: functional
Pseudomonas aeruginosa [12] = assay: Antibacterial activity against levofloxacin-resistant Pseudomonas aeruginosa
Homo sapiens [13] = assay: Treatment emergent adverse event in intent-to-treat patient with complicated urinary tract infection assessed as headache at 250 […], iv qd for 10 days; assay type: ADME, organism-based, Urine; design: route intravenous; conditions: in vivo, 240 h
Homo sapiens [14] = assay: Treatment emergent adverse event in intent-to-treat patient with complicated urinary tract infection assessed as constipation at 250 […], iv qd for 10 days; assay type: organism-based; design: route intravenous; conditions: in vivo, 240 h
Homo sapiens [15] = assay: Treatment emergent adverse event in intent-to-treat patient with complicated urinary tract infection assessed as diarrhea at 250 […], iv qd for 10 days; assay type: organism-based; design: route intravenous; conditions: in vivo, 240 h
Homo sapiens [16] = assay: Treatment emergent adverse event in intent-to-treat patient with complicated urinary tract infection assessed as vomiting at 250 […], iv qd for 10 days; assay type: ADME, organism-based, Urine; design: route intravenous; conditions: in vivo, 240 h
Homo sapiens [17] = assay: Treatment emergent adverse event in intent-to-treat patient with complicated urinary tract infection assessed as upper abdominal pain at 250 […], iv qd for 10 days; assay type: ADME, organism-based, Urine; design: route intravenous; conditions: in vivo, 240 h
Homo sapiens [18] = assay: Treatment emergent adverse event in intent-to-treat patient with complicated urinary tract infection assessed as nausea at 250 […], iv qd for 10 days; assay type: ADME, organism-based, Urine; design: route intravenous; conditions: in vivo, 240 h
Homo sapiens [19] = assay: Treatment emergent adverse event in intent-to-treat patient with complicated urinary tract infection assessed as phlebitis at 250 […], iv qd for 10 days; assay type: organism-based; design: route intravenous; conditions: in vivo, 240 h
Homo sapiens [20] = assay: Treatment emergent adverse event in intent-to-treat patient with complicated urinary tract infection assessed as insomnia at 250 […], iv qd for 10 days; assay type: ADME, organism-based, Urine; design: route intravenous; conditions: in vivo, 240 h
Homo sapiens [21] = assay: Treatment emergent adverse event in intent-to-treat patient with complicated urinary tract infection assessed as urinary tract infection at 250 […], iv qd for 10 days; assay type: ADME, organism-based; design: route intravenous; conditions: in vivo, 240 h
Homo sapiens [22] = assay: Treatment emergent adverse event in intent-to-treat patient with complicated urinary tract infection assessed as asymptomatic bacteriuria at 250 […], iv qd for 10 days; assay type: organism-based, Urine; design: route intravenous; conditions: in vivo, 240 h
Homo sapiens [23] = assay: Treatment emergent adverse event in intent-to-treat patient with complicated urinary tract infection assessed as back pain at 250 […], iv qd for 10 days; assay type: organism-based; design: route intravenous; conditions: in vivo, 240 h
Homo sapiens [24] = assay: Treatment emergent adverse event in intent-to-treat patient with complicated urinary tract infection assessed as hypokalemia at 250 […], iv qd for 10 days; assay type: ADME, organism-based, Urine; design: route intravenous; conditions: in vivo, 240 h
Homo sapiens [25] = assay: Treatment emergent adverse event in intent-to-treat patient with complicated urinary tract infection assessed as abdominal pain at 250 […], iv qd for 10 days; assay type: organism-based; design: route intravenous; conditions: in vivo, 240 h
Homo sapiens [26] = assay: Treatment emergent adverse event in intent-to-treat patient with complicated urinary tract infection assessed as >=1 adverse event at 250 […], iv qd for 10 days; assay type: organism-based, Urine; design: dose 250 mg/kg, route intravenous; conditions: in vivo, 240 h
Homo sapiens [27] = assay: Drug related treatment emergent adverse event in intent-to-treat patient with complicated urinary tract infection assessed as >=1 adverse event at 250 […], iv qd for 10 days; assay type: toxicity, organism-based; design: dose 250 mg/kg, route intravenous; conditions: in vivo, 240 h
Homo sapiens [28] = assay: Drug related treatment emergent adverse event in intent-to-treat patient with complicated urinary tract infection assessed as headache at 250 […], iv qd for 10 days; assay type: toxicity, organism-based, Urine; design: dose 250 […], route intravenous; conditions: in vivo, 240 h
Homo sapiens [29] = assay: Drug related treatment emergent adverse event in intent-to-treat patient with complicated urinary tract infection assessed as diarrhea at 250 […], iv qd for 10 days; assay type: toxicity, organism-based; design: dose 250 […], route intravenous; conditions: in vivo, 240 h
Homo sapiens [30] = assay: Drug related treatment emergent adverse event in intent-to-treat patient with complicated urinary tract infection assessed as upper abdominal pain at 250 […], iv qd for 10 days; assay type: toxicity, organism-based; design: dose 250 […], route intravenous; conditions: in vivo, 240 h
Homo sapiens [31] = assay: Drug related treatment emergent adverse event in intent-to-treat patient with complicated urinary tract infection assessed as nausea at 250 […], iv qd for 10 days; assay type: toxicity, organism-based, Urine; design: dose 250 […], route intravenous; conditions: in vivo, 240 h
Homo sapiens [32] = assay: Drug related treatment emergent adverse event in intent-to-treat patient with complicated urinary tract infection assessed as phlebitis at 250 […], iv qd for 10 days; assay type: toxicity, organism-based, Urine; design: dose 250 […], route intravenous; conditions: in vivo, 240 h

## C[C@H]1COc2c(N3CCN(C)CC3)c(F)cc3c(=O)c(C(=O)O)cn1c23.C[C@H]1COc2c(N3CCN(C)CC3)c(F)cc3c(=O)c(C(=O)O)cn1c23.O [LEVOFLOXACIN]
Escherichia coli [1]
  Activity: 87.2%
Escherichia coli [2]
  Activity: 29%
Escherichia coli [3]
  Activity: 33%
Klebsiella pneumoniae [4]
  Activity: 62.5%
Proteus mirabilis [5]
  Activity: 86.7%
Escherichia coli [6]
  MIC: 0.25 µg/mL
Klebsiella pneumoniae [7]
  MIC: 2 µg/mL
Proteus mirabilis [8]
  MIC: 0.25 µg/mL
Pseudomonas aeruginosa [9]
  MIC: 0.25 µg/mL
Enterococcus faecalis
  MIC: 16 µg/mL
Escherichia coli [10]
  MIC: 32 µg/mL
Proteus mirabilis [11]
  MIC: 32 µg/mL
Pseudomonas aeruginosa [12]
  MIC: 32 µg/mL
Homo sapiens [13]
  Activity: 14.5%
Homo sapiens [14]
  Activity: 4.8%
Homo sapiens [15]
  Activity: 9.9%
Homo sapiens [16]
  Activity: 4.3%
Homo sapiens [17]
  Activity: 3.5%
Homo sapiens [18]
  Activity: 5.9%
Homo sapiens [19]
  Activity: 4%
Homo sapiens [20]
  Activity: 3%
Homo sapiens [21]
  Activity: 1.6%
Homo sapiens [22]
  Activity: 1.1%
Homo sapiens [23]
  Activity: 4.6%
Homo sapiens [24]
  Activity: 3.5%
Homo sapiens [25]
  Activity: 3.5%
Homo sapiens [26]
  Activity: 60%
Homo sapiens [27]
  Activity: 25%
Homo sapiens [28]
  Activity: 2.7%
Homo sapiens [29]
  Activity: 5.9%
Homo sapiens [30]
  Activity: 2.2%
Homo sapiens [31]
  Activity: 1.6%
Homo sapiens [32]
  Activity: 3%
